Laboratory results reported in patent publication US20040014215A1, “Synchronised arabidopsis cell suspensions and uses thereof” (priority 2000, published 2004).

Columns and labels:
[1] = system: Arabidopsis cell suspension MM2d; assay: Aphidicolin block/release of MM2d: proportion of G1, S and G2 cells by flow cytometry; type: cell-based, Arabidopsis thaliana
Protocol: The level of synchronicity of the Arabidopsis cell suspension culture MM1 was analysed by flow cytometry. The cell pellet from 5 ml of cell suspension culture was frozen in liquid nitrogen. To analyse the DNA content, the High Resolution Kit for Plant ploidy analysis (Type P) (Partec, Cat. No. 06-5-4004) was used, containing solution A (to release cell nuclei) and solution B (to stain DNA with DAPI). A sample of the frozen cell pellet was transferred into a small petri-dish (5 cm diameter), 150 μl of solution A was added, and the sample was carefully chopped with vertical motion of a sharp razor blade. An additional 150 μl of solution A was added, the cell suspension pipetted up and down for several time before leaving for approximately 2 min at RT. The released cell nuclei were filtered through a 50 μm nylon mesh (Partec, CellTrics 50 μm, Cat. No. 06-4-2317) and 1 ml of solution B was added to the filtrate. On average 8200 particles were counted with a flow cytometer (PASIII; Partec GmbH, Germany), using HBO lamp excitation (Partec, mercury lamp HBO 100 long life, 100W) and detection of emission using a blue filter. Cell cycle phases were analysed using Multicycle for Windows (Phoenix Flow Systems, San Diego, Calif.). Flow cytometry results are not corrected for the mitotic cells (which are not measured by this method).
This experiment was carried out as described for Example 1, except that cell line MM2d was used, and the culture conditions throughout the experiment were as described for MM2d in Example 1.
Synchronisation was performed as described in Example 2A, with the exception that before adding aphidicolin, 20 ml of the weekly subcultured cell suspension was transferred into 100 ml fresh MSS-medium in each of 2 separate flasks and cultivated under conditions as described in Example 1 for MM2d. […] Samples were taken at the same time frame for flow cytometry to follow cell cycle transition.
Samples were analysed by flow cytometry to determine the percentage of cells being in G1-, S- and G2M phase. The mitotic index (MI) and labelling index (LI) were independently determined (as described in Example 2A). Results are shown below in table II and in FIG. 1.
Table II. Aphidicolin block/release of Arabidopsis cell suspension MM2d. Data are shown from analysis of samples obtained in the experiment described in Example 2B.

[2] = system: Arabidopsis cell suspension culture MM1; assay: Scaled-up aphidicolin (4.16 μg/ml, 24 hrs) synchronisation of MM1: LI and MI; type: cell-based, Arabidopsis thaliana
Protocol: was analysed following the expression level of known cell cycle regulated genes. Synchronisation was performed as described in Example 2A, with the exception that two 7-day old cultures of the weekly sub-cultured cell suspension (210 ml each) were combined. 40 ml of combined culture was transferred into 200 ml of fresh MSS-medium in each of 10 separate flasks. After incubation for 24 hrs under conditions as described in Example 1, in the presence of 4.16 μg/ml aphidicolin, cells from 5 pooled flasks were washed through a nylon net (mesh size 47 μm) and washed with 2 litre MSS medium and shaken vigorously to remove the aphidicolin. Cells were transferred into a 50 ml plastic tube, washed again with MSS medium and centrifuged at 2500 rpm for 1 min (1075 rcf). Cells were resuspended and combined with the cells from the other 5 flasks similarly washed in a total volume of 300 ml fresh MSS-medium. 30 ml of this cell suspension was then added to 200 ml fresh MSS-medium in each of 10 separate flasks.
For every time point a 30 ml sample was split into:
2) 5 ml for LI and Ml determination as described in Example 2A.
A MI peak of 9.8% was observed, about 12 hrs after release from the aphidicolin block. Labelling index was also determined and reached a peak of 52%, 3 h after release.

tobacco BY-2 cell line = details: BY-2, aphidicolin block; cited from earlier work

SMILES: C[C@@]1(CO)[C@H](O)CC[C@@]2(C)[C@H]1CC[C@H]1C[C@@H]3C[C@@]12CC[C@]3(O)CO [aphidicolin]
- G1 (%) MM2d ([1]; 0 h after aphidicolin removal): 46.9%
- G2 (%) MM2d ([1]; 0 h after aphidicolin removal): 16.4%
- S (%) MM2d ([1]; 0 h after aphidicolin removal): 36.6%
- G1 (%) MM2d ([1]; 1 h after aphidicolin removal): 16.6%
- G2 (%) MM2d ([1]; 1 h after aphidicolin removal): 4.9%
- S (%) MM2d ([1]; 1 h after aphidicolin removal): 78.6%
- G1 (%) MM2d ([1]; 2 h after aphidicolin removal): 21.5%
- G2 (%) MM2d ([1]; 2 h after aphidicolin removal): 5.3%
- S (%) MM2d ([1]; 2 h after aphidicolin removal): 73.2%
- G1 (%) MM2d ([1]; 3 h after aphidicolin removal): 24.8%
- G2 (%) MM2d ([1]; 3 h after aphidicolin removal): 11.2%
- S (%) MM2d ([1]; 3 h after aphidicolin removal): 64.1%
- G1 (%) MM2d ([1]; 4 h after aphidicolin removal): 18.8%
- G2 (%) MM2d ([1]; 4 h after aphidicolin removal): 48.2%
- S (%) MM2d ([1]; 4 h after aphidicolin removal): 33%
- G1 (%) MM2d ([1]; 5 h after aphidicolin removal): 15.1%
- G2 (%) MM2d ([1]; 5 h after aphidicolin removal): 74.8%
- S (%) MM2d ([1]; 5 h after aphidicolin removal): 10.1%
- G1 (%) MM2d ([1]; 6 h after aphidicolin removal): 12.5%
- G2 (%) MM2d ([1]; 6 h after aphidicolin removal): 80.6%
- S (%) MM2d ([1]; 6 h after aphidicolin removal): 6.9%
- G1 (%) MM2d ([1]; 7 h after aphidicolin removal): 10.5%
- G2 (%) MM2d ([1]; 7 h after aphidicolin removal): 89.5%
- S (%) MM2d ([1]; 7 h after aphidicolin removal): 0%
- G1 (%) MM2d ([1]; 8 h after aphidicolin removal): 9%
- G2 (%) MM2d ([1]; 8 h after aphidicolin removal): 91%
- S (%) MM2d ([1]; 8 h after aphidicolin removal): 0%
- G1 (%) MM2d ([1]; 9 h after aphidicolin removal): 7.6%
- G2 (%) MM2d ([1]; 9 h after aphidicolin removal): 92.4%
- S (%) MM2d ([1]; 9 h after aphidicolin removal): 0%
- G1 (%) MM2d ([1]; 10 h after aphidicolin removal): 10.1%
- G2 (%) MM2d ([1]; 10 h after aphidicolin removal): 89.6%
- S (%) MM2d ([1]; 10 h after aphidicolin removal): 0%
- G1 (%) MM2d ([1]; 11 h after aphidicolin removal): 17.2%
- G2 (%) MM2d ([1]; 11 h after aphidicolin removal): 82.8%
- S (%) MM2d ([1]; 11 h after aphidicolin removal): 0%
- G1 (%) MM2d ([1]; 12 h after aphidicolin removal): 27.7%
- G2 (%) MM2d ([1]; 12 h after aphidicolin removal): 72.3%
- S (%) MM2d ([1]; 12 h after aphidicolin removal): 0%
- G1 (%) MM2d ([1]; 13 h after aphidicolin removal): 32.1%
- G2 (%) MM2d ([1]; 13 h after aphidicolin removal): 67.9%
- S (%) MM2d ([1]; 13 h after aphidicolin removal): 0%
- G1 (%) MM2d ([1]; 14 h after aphidicolin removal): 34.3%
- G2 (%) MM2d ([1]; 14 h after aphidicolin removal): 65.7%
- S (%) MM2d ([1]; 14 h after aphidicolin removal): 0%
- G1 (%) MM2d ([1]; 15 h after aphidicolin removal): 40.7%
- G2 (%) MM2d ([1]; 15 h after aphidicolin removal): 59.3%
- S (%) MM2d ([1]; 15 h after aphidicolin removal): 0%
- G1 (%) MM2d ([1]; 16 h after aphidicolin removal): 34.9%
- G2 (%) MM2d ([1]; 16 h after aphidicolin removal): 59.4%
- S (%) MM2d ([1]; 16 h after aphidicolin removal): 5.8%
- G1 (%) MM2d ([1]; 17 h after aphidicolin removal): 40.8%
- G2 (%) MM2d ([1]; 17 h after aphidicolin removal): 52%
- S (%) MM2d ([1]; 17 h after aphidicolin removal): 7.3%
- G1 (%) MM2d ([1]; 18 h after aphidicolin removal): 40.7%
- G2 (%) MM2d ([1]; 18 h after aphidicolin removal): 47.9%
- S (%) MM2d ([1]; 18 h after aphidicolin removal): 11.3%
- G1 (%) MM2d ([1]; 19 h after aphidicolin removal): 38.4%
- G2 (%) MM2d ([1]; 19 h after aphidicolin removal): 47.3%
- S (%) MM2d ([1]; 19 h after aphidicolin removal): 14.4%
- G1 (%) MM2d ([1]; 20 h after aphidicolin removal): 37.7%
- G2 (%) MM2d ([1]; 20 h after aphidicolin removal): 45.5%
- S (%) MM2d ([1]; 20 h after aphidicolin removal): 16.9%
- maximum G2 synchrony ([1]; MM2d, flow cytometry): 90%
- maximum S phase synchrony ([1]; MM2d, flow cytometry): 79%
- Labelling index peak ([2]; 3 h after release): 52%
- MI peak ([2]; about 12 hrs after release from the aphidicolin block): 9.8%
- mitotic index (tobacco BY-2 cell line): 45-50%
